For one test, the system named is gastric secretion. Description: gastric secretion by ligature of the pylorus using Shay's technique, male Sprague-Dawley rats. It is filed as in vivo. The following applies: rat, intraduodenal route, 50 mg/kg, acute. The method, then: 1. […] Acute treatment by intraduodenal route in a dose of 50 mg/kg.
Test [1] has as its system ulcers with acetyl salicylic acid. The experiment in a line: activity toward ulcers with acetyl salicylic acid quantified in accordance with the Pfeiffer scale, male rats. It is filed as in vivo. The note with it: orally, acute.

Turning to “N-methyl 2'-(orthochloro-α-hydroxybenzyl)-4'-chloro 2-[2-(Δ2-imidazolinyl)thio]acetanilide [Product 11]”, in the test with gastric secretion, the “% Variation: decrease of the volume secreted” value (from here on “% Variation: decrease”) worked out at 76% and the “% Variation: increase of the intragastric pH” value (“% Variation: increase” below) was 267%.

In the case of `CN(C(=O)CSc1ncc[nH]1)c1ccc(Cl)cc1C(=O)c1ccccc1Cl` [Product 7], in the test on gastric secretion, the “% Variation: decrease” value was 70% and the “% Variation: increase” value was 118%. Also, in test [1] (dose 40 mg/kg), the “% Inhibition of the ulcer lesions” value amounted to 46%.

Take “N-methyl 2-[2-(Δ2-imidazolinyl)thio]2'-benzoyl-4'-chloroacetanilide hydrochloride [Product 2]”: in the test on gastric secretion, the “% Variation: decrease” value came out at 76% and the “% Variation: increase” value is 158%. In addition, the “% Inhibition of the ulcer lesions” value in test [1] (dose 40 mg/kg) stood at 34%.

As to `CNC(=NCCSCc1nc[nH]c1C)NC#N` [Cimetidine, N-Cyano-N'-methyl-N''-[2-[[(5-methyl-1H-imidazol-4-yl)methyl]thio]ethyl]guanidine, reference compound], in the test with gastric secretion, the “% Variation: decrease” value is reported as 47% and the “% Variation: increase” value turned out to be 90%. Besides, in test [1] (dose 40 mg/kg), the “% Inhibition of the ulcer lesions” value was determined as 46%.

Consider `CN(C(=O)CSC(=N)N)c1ccc(Cl)cc1C(=O)c1ccccc1Cl` [Product 16], for which, in the test with gastric secretion, the “% Variation: decrease” value worked out at 79% and the “% Variation: increase” value stood at 153%. Moreover, the “% Inhibition of the ulcer lesions” value in test [1] (dose 50 mg/kg) was found to be 32%.

With `CN(C(=O)CSC1=NCCN1)c1ccc(Cl)cc1Cc1ccccc1` [Product 12], the “% Inhibition of the ulcer lesions” value in test [1] (dose 40 mg/kg) amounted to 40%.

Regarding `CN(C(=O)CSc1ncc[nH]1)c1ccc(Cl)cc1C(=O)c1ccccc1` [Product 15], in the test on gastric secretion, the “% Variation: decrease” value stood at 50% and the “% Variation: increase” value is recorded as 181%. In addition, in test [1] (dose 50 mg/kg), the “% Inhibition of the ulcer lesions” value was determined as 35%.

Source of the values: patent US5025015A, “Thioformamidines, and use as medicaments” (Pierre Fabre Medicament, priority 1988, dated 1991).
